Data as given in patent US20250332266A1, “COMPOUNDS FOR THE DEGRADATION OF EGFR KINASE” (BeiGene Switzerland GmbH, priority 2022, published 2025).

What was measured:
[1] = target: EGFR Del19/T790M/C797S (H1975-clone #28) (Homo sapiens, UniProt P00533, T790M/C797S, form not given); test: EGFR degradation, HTRF total-EGFR assay, H1975-clone #28 (DTC); assay type: cell-based; settings: H1975-clone #28 Del19/T790M/C797S, 16 h treatment
Outline: (§1)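 H1975 clones with endogenous EGFR knocked out and homozygous exogenous EGFR mutants (#28 Del19/T790M/C797S; #25 L858R/T790M/C797S) treated 16 h at 37 °C, 8 doses, 5-fold from 10 μM, 0.2% DMSO. Total EGFR measured by HTRF on lysates, normalised to DMSO controls; DC50 and Dmax from curve fit.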

[2] = target: T1, EGFR L858R/T790M/C797S (H1975-clone #25) (Homo sapiens, UniProt P00533, C797S/L858R/T790M); test: EGFR degradation, HTRF total-EGFR assay, H1975-clone #25 (LTC); assay type: cell-based; settings: H1975-clone #25 L858R/T790M/C797S, 16 h treatment
T1 construct: expressed in transfected cells; host or cells: H1975 (clone #25), lentiviral transduction, endogenous EGFR knocked out
Outline: as §1

T1 sequence (P00533 25-1210 T790M/C797S/L858R): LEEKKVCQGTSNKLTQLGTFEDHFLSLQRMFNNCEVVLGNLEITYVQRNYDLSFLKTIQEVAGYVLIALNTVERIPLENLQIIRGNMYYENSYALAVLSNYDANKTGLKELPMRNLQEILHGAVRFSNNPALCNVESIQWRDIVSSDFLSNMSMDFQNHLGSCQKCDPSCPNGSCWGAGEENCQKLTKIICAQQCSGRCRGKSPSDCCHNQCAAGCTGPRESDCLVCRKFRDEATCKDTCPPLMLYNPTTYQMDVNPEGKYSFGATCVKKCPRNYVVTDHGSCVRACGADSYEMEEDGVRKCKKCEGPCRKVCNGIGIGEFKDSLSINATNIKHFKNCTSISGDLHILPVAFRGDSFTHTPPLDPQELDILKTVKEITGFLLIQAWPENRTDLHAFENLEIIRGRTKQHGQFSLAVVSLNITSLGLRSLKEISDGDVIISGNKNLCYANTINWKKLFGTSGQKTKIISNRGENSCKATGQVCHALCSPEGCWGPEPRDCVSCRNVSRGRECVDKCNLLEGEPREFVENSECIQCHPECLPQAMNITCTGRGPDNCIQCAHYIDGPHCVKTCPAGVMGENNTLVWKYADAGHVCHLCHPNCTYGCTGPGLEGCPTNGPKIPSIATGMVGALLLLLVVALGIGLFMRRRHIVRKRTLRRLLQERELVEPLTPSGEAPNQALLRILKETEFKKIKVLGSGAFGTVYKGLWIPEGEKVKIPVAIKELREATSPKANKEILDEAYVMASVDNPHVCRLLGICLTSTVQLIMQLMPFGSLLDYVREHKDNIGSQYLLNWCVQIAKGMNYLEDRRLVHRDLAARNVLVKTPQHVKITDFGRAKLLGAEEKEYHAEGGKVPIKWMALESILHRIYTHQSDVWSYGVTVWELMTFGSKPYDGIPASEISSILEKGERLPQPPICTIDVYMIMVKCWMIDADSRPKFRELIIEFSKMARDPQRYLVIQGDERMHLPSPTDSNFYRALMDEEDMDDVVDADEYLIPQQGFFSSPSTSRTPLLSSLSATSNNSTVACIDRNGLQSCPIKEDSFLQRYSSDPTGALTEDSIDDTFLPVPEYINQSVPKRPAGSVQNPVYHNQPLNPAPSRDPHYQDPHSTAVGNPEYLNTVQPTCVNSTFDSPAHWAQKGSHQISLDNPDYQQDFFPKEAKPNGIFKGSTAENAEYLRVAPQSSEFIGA
Chain of EGFR Del19/T790M/C797S (H1975-clone #28) (P00533 with tags, fused parts or gaps DEL746-750/T790M/C797S, form open): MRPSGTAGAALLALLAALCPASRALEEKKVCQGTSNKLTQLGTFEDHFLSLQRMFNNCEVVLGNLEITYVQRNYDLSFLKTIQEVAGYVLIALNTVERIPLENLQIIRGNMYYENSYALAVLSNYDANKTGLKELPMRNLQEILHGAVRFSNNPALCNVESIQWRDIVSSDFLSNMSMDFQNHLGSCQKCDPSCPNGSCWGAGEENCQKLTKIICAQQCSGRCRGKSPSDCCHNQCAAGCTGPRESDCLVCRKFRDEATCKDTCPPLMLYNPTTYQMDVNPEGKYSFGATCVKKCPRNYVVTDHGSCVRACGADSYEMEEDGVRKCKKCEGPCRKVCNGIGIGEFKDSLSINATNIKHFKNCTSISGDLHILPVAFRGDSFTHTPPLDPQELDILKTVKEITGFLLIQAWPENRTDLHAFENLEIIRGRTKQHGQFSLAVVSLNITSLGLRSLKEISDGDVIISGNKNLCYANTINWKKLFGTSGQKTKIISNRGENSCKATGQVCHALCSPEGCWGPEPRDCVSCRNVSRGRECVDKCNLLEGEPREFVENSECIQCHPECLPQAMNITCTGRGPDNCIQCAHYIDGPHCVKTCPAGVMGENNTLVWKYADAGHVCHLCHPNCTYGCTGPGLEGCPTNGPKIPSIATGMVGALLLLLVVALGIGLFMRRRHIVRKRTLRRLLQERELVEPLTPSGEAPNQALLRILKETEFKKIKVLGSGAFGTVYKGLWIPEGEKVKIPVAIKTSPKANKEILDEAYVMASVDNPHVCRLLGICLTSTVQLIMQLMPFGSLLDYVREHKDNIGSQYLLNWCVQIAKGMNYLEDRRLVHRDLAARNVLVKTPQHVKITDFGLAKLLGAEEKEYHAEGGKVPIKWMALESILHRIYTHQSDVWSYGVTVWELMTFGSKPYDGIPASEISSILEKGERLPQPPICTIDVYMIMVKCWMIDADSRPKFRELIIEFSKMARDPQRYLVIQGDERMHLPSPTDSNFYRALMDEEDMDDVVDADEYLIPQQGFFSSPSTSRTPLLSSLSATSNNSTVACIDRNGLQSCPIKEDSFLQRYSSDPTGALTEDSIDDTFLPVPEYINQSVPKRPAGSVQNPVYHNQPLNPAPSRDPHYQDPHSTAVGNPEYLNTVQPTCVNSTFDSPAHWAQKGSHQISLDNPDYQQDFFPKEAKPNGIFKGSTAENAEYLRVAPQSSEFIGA

Cc1cc2cc(n1)-c1cnn(C)c1OC[C@H]1C[C@@H](CN3/C(=N/C2=O)Nc2ccc(N(C)C4CC5(C4)CN(C4CCN(c6ccc(C7CCC(=O)NC7=O)nc6C)CC4)C5)cc23)C1 (stereo partly shown) [Example 112, 3-(5-(4-(6-(((7^1s,7^3s,E)-1^1,2^6-dimethyl-3-oxo-5^2,5^3-dihydro-1^1′H,5^1H-9-oxa-4-aza-5(2,1)-benzo[d]imidazola-2(2,4)-pyridina-1(4,5)-pyrazola-7(1,3)-cyclobutanacyclononaphane-5^6-yl)(methyl)amino)-2-azaspiro[3.3]heptan-2-yl)piperidin-1-yl)-6-methylpyridin-2-yl)piperidine-2,6-dione]
Degradation H1975 # 28 DTC [1]: 75.2
Degradation H1975 # 25-LTC [2]: 85.2

Cc1cc2cc(n1)-c1cnn(C)c1OC[C@H]1C[C@@H](CN3/C(=N/C2=O)Nc2ccc(N4CCN(C5CCN(c6ccc(C7CCC(=O)NC7=O)nc6C)CC5)C[C@H]4C)cc23)C1 (stereo partly drawn) [Example 34, 3-(5-(4-((R)-4-((7^1s,7^3S,E)-1^1,2^6-dimethyl-3-oxo-5^2,5^3-dihydro-1^1H,5^1H-9-oxa-4-aza-5(2,1)-benzo[d]imidazola-2(2,4)-pyridina-1(4,5)-pyrazola-7(1,3)-cyclobutanacyclononaphane-5^6-yl)-3-methylpiperazin-1-yl)piperidin-1-yl)-6-methylpyridin-2-yl)piperidine-2,6-dione]
Degradation H1975 # 28 DTC [1]: 89.6
Degradation H1975 # 25-LTC [2]: 93.3

Cc1cc2cc(n1)-c1cnn(C)c1OC[C@H]1C[C@@H](CN3/C(=N/C2=O)Nc2ccc(N4CCN([C@H]5C[C@@H](Nc6cc(F)c([C@H]7CCC(=O)NC7=O)c(F)c6)C5)CC4)cc23)C1 (single isomer, unassigned) [Example 16]
Degradation H1975 # 28 DTC [1]: 71.5
Degradation H1975 # 25-LTC [2]: 64.0

Cc1cc2cc(n1)-c1cnn(C)c1OC[C@H]1C[C@@H](CN3/C(=N/C2=O)Nc2ccc(N4CCN(C5CCN(c6cc(F)c([C@H]7CCC(=O)NC7=O)c(F)c6)CC5)CC4=O)cc23)C1 [Example 10, (R)-3-(4-(4-(4-((7^1s,7^3s,E)-1^1,2^6-dimethyl-3-oxo-5^2,5^3-dihydro-1^1H,5^1H-9-oxa-4-aza-5(2,1)-benzo[d]imidazola-2(2,4)-pyridina-1(4,5)-pyrazola-7(1,3)-cyclobutanacyclononaphane-5^6-yl)-3-oxopiperazin-1-yl)piperidin-1-yl)-2,6-difluorophenyl)piperidine-2,6-dione]
Degradation H1975 # 28 DTC [1]: 90.6
Degradation H1975 # 25-LTC [2]: 89.8

Cc1cc2cc(n1)-c1cnn(C)c1OC[C@H]1C[C@@H](CN3/C(=N/C2=O)Nc2ccc(N4CCN(C5CN(C6CCN(c7cnc(C8CCC(=O)NC8=O)cc7C)CC6)C5)CC4)cc23)C1 (stereo partly shown) [Example 131, 3-(5-(4-(3-(4-((7^1s,7^3s,E)-1^1,2^6-dimethyl-3-oxo-5^2,5^3-dihydro-1^1H,5^1H-9-oxa-4-aza-5(2,1)-benzo[d]imidazola-2(2,4)-pyridina-1(4,5)-pyrazola-7(1,3)-cyclobutanacyclononaphane-5^6-yl)piperazin-1-yl)azetidin-1-yl)piperidin-1-yl)-4-methylpyridin-2-yl)piperidine-2,6-dione]
Degradation H1975 # 28 DTC [1]: 68.0
Degradation H1975 # 25-LTC [2]: 84.8

Cc1cc2cc(n1)-c1cnn(C)c1OC[C@H]1C[C@@H](CN3/C(=N/C2=O)Nc2ccc(N4CCN(C5CCN(c6cc(F)c([C@H]7CCC(=O)NC7=O)c(F)c6)CC5)[C@@H](CO)C4)cc23)C1 [Example 31, (R)-3-(4-(4-((R)-4-((7^1s,7^3S,E)-1^1,2^6-dimethyl-3-oxo-5^2,5^3-dihydro-1^1H,5^1H-9-oxa-4-aza-5(2,1)-benzo[d]imidazola-2(2,4)-pyridina-1(4,5)-pyrazola-7(1,3)-cyclobutanacyclononaphane-5^6-yl)-2-(hydroxymethyl)piperazin-1-yl)piperidin-1-yl)-2,6-difluorophenyl)piperidine-2,6-dione]
Degradation H1975 # 28 DTC [1]: 84.2
Degradation H1975 # 25-LTC [2]: 90.5

Cc1cc2cc(n1)-c1cnn(C)c1OC[C@H]1C[C@@H](CN3/C(=N/C2=O)Nc2ccc(N4CCN(CCNc5cc(F)c([C@H]6CCC(=O)NC6=O)c(F)c5)CC4)cc23)C1 (single isomer, unassigned) [Example 14]
Degradation H1975 # 28 DTC [1]: 77.1
Degradation H1975 # 25-LTC [2]: 83.9

Cc1cc2cc(n1)-c1cnn(C)c1OC[C@H]1C[C@@H](CN3/C(=N/C2=O)Nc2ccc(N4CCN(C5CCN(c6ccc(C7CCC(=O)NC7=O)nc6)CC5)C[C@H]4C)cc23)C1 (stereo partly drawn) [Example 7, 3-(5-(4-((R)-4-((7^1s,7^3S,E)-1^1,2^6-dimethyl-3-oxo-5^2,5^3-dihydro-1^1H,5^1H-9-oxa-4-aza-5(2,1)-benzo[d]imidazola-2(2,4)-pyridina-1(4,5)-pyrazola-7(1,3)-cyclobutanacyclononaphane-5^6-yl)-3-methylpiperazin-1-yl)piperidin-1-yl)pyridin-2-yl)piperidine-2,6-dione]
Degradation H1975 # 28 DTC [1]: 80.6
Degradation H1975 # 25-LTC [2]: 78.6

Cc1cc2cc(n1)-c1cnn(C)c1OC[C@H]1C[C@@H](CN3/C(=N/C2=O)Nc2ccc(N4CCN(C5CCN(c6ccc(C7CCC(=O)NC7=O)nc6C)CC5)CC4)cc23)C1 (stereo partly shown) [Example 21, 3-(5-(4-(4-((7^1s,7^3s,E)-1^1,2^6-dimethyl-3-oxo-5^2,5^3-dihydro-1H,5^1H-9-oxa-4-aza-5(2,1)-benzo[d]imidazola-2(2,4)-pyridina-1(4,5)-pyrazola-7(1,3)-cyclobutanacyclononaphane-5^6-yl)piperazin-1-yl)piperidin-1-yl)-6-methylpyridin-2-yl)piperidine-2,6-dione]
Degradation H1975 # 28 DTC [1]: 91.5
Degradation H1975 # 25-LTC [2]: 94.0

Cc1cc2cc(n1)-c1cnn(C)c1OC[C@H]1C[C@@H](CN3/C(=N/C2=O)Nc2ccc(N(C)C4CN(C5CCN(c6cnc(C7CCC(=O)NC7=O)cc6C)CC5)C4)cc23)C1 (stereo partly shown) [Example 41, 3-(5-(4-(3-(((7^1s,7^3s,E)-1^1,2^6-dimethyl-3-oxo-5^2,5^3-dihydro-1^1H,5^1H-9-oxa-4-aza-5(2,1)-benzo[d]imidazola-2(2,4)-pyridina-1(4,5)-pyrazola-7(1,3)-cyclobutanacyclononaphane-5^6-yl)(methyl)amino)azetidin-1-yl)piperidin-1-yl)-4-methylpyridin-2-yl)piperidine-2,6-dione]
Degradation H1975 # 28 DTC [1]: 80.1
Degradation H1975 # 25-LTC [2]: 84.2

Cc1cc2cc(n1)-c1cnn(C)c1OC[C@H]1C[C@@H](CN3/C(=N/C2=O)Nc2ccc(N4CCN(CC5CN(c6cnc(C7CCC(=O)NC7=O)cc6C)C5)C[C@@H]4C)cc23)C1 (stereo partly drawn) [Example 37, 3-(5-(3-(((S)-4-((7^1s,7^3R,E)-1^1,2^6-dimethyl-3-oxo-5^2,5^3-dihydro-1^1H,5^1H-9-oxa-4-aza-5(2,1)-benzo[d]imidazola-2(2,4)-pyridina-1(4,5)-pyrazola-7(1,3)-cyclobutanacyclononaphane-5^6-yl)-3-methylpiperazin-1-yl)methyl)azetidin-1-yl)-4-methylpyridin-2-yl)piperidine-2,6-dione]
Degradation H1975 # 28 DTC [1]: 79.4
Degradation H1975 # 25-LTC [2]: 80.7
